Reference: PubChem BioAssay (NCI)
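Results reflect a 48-hour exposure of cells in 96-well plates to compound at five concentrations. TGI: total growth inhibition.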

Experiments:
Experiment in all cases: NCI tumour cell line growth inhibition, 48 h
RXF 393 renal = tested on: RXF 393 renal
LOX IMVI melanoma = tested on: LOX IMVI melanoma
SNB-75 CNS = tested on: SNB-75 CNS
COLO 205 colon = tested on: COLO 205 colon
CCRF-CEM leukemia = tested on: CCRF-CEM leukemia
XF 498 CNS = tested on: XF 498 CNS
DMS 273 small cell lung = tested on: DMS 273 small cell lung
SN12K1 renal = tested on: SN12K1 renal
IGROV1 ovarian = tested on: IGROV1 ovarian
SF-268 CNS = tested on: SF-268 CNS
U251 CNS = tested on: U251 CNS
SK-MEL-5 melanoma = tested on: SK-MEL-5 melanoma
SNB-78 CNS = tested on: SNB-78 CNS
NCI-H23 lung = tested on: NCI-H23 lung
HOP-92 NSCLC = tested on: HOP-92 NSCLC
KM12 colon = tested on: KM12 colon
A549 NSCLC = tested on: A549 NSCLC
A498 renal = tested on: A498 renal
KM20L2 colon = tested on: KM20L2 colon
RPMI-8226 leukemia = tested on: RPMI-8226 leukemia
SK-OV-3 ovarian = tested on: SK-OV-3 ovarian
OVCAR-5 ovarian = tested on: OVCAR-5 ovarian
P388/ADR leukemia = tested on: P388/ADR leukemia
UACC-62 melanoma = tested on: UACC-62 melanoma
MALME-3M melanoma = tested on: MALME-3M melanoma
K-562 leukemia = tested on: K-562 leukemia
SK-MEL-2 melanoma = tested on: SK-MEL-2 melanoma
MOLT-4 leukemia = tested on: MOLT-4 leukemia
HCT-116 colon = tested on: HCT-116 colon
NCI-H460 lung = tested on: NCI-H460 lung
HOP-62 NSCLC = tested on: HOP-62 NSCLC
SF-539 CNS = tested on: SF-539 CNS
UACC-257 melanoma = tested on: UACC-257 melanoma
M19-MEL melanoma = tested on: M19-MEL melanoma
OVCAR-4 ovarian = tested on: OVCAR-4 ovarian
OVCAR-3 ovarian = tested on: OVCAR-3 ovarian
UO-31 renal = tested on: UO-31 renal
HL-60(TB) leukemia = tested on: HL-60(TB) leukemia
MCF7 breast = tested on: MCF7 breast
HCT-15 colon = tested on: HCT-15 colon
SNB-19 CNS = tested on: SNB-19 CNS
HOP-18 NSCLC = tested on: HOP-18 NSCLC
HT29 colon = tested on: HT29 colon
SN12C renal = tested on: SN12C renal
P388 leukemia = tested on: P388 leukemia
OVCAR-8 ovarian = tested on: OVCAR-8 ovarian
NCI/ADR-RES ovarian = tested on: NCI/ADR-RES ovarian
SF-295 CNS = tested on: SF-295 CNS
DLD-1 colon = tested on: DLD-1 colon
HCC-2998 colon = tested on: HCC-2998 colon
SK-MEL-28 melanoma = tested on: SK-MEL-28 melanoma
NCI-H522 lung = tested on: NCI-H522 lung
EKVX NSCLC = tested on: EKVX NSCLC
SW-620 colon = tested on: SW-620 colon
NCI-H226 lung = tested on: NCI-H226 lung
DMS 114 small cell lung = tested on: DMS 114 small cell lung
RXF-631 renal = tested on: RXF-631 renal
TK-10 renal = tested on: TK-10 renal
ACHN renal = tested on: ACHN renal
LXFL 529 NSCLC = tested on: LXFL 529 NSCLC
786-0 renal = tested on: 786-0 renal
M14 melanoma = tested on: M14 melanoma

Work on `O=S(=O)(O)c1cc2ccc1/C=C\c1ccc(cc1S(=O)(=O)O)N=Nc1ccc(c(S(=O)(=O)O)c1)/C=C\c1ccc(cc1S(=O)(=O)O)N=N2` yielded a TGI (RXF 393 renal) of over 100 µM, a TGI (LOX IMVI melanoma) of over 100 µM and a TGI (SNB-75 CNS) of over 100 µM. The TGI (COLO 205 colon) was over 100 µM, the TGI (CCRF-CEM leukemia) was over 100 µM and the TGI (XF 498 CNS) was over 100 µM. It also gave a TGI (DMS 273 small cell lung) of over 100 µM, a TGI (SN12K1 renal) of over 100 µM and a TGI (IGROV1 ovarian) of over 100 µM. It also gave a TGI (SF-268 CNS) of over 100 µM, a TGI (U251 CNS) of over 100 µM and a TGI (SK-MEL-5 melanoma) of over 100 µM. For the same compound, the TGI (SNB-78 CNS) was over 100 µM, the TGI (NCI-H23 lung) was over 100 µM and the TGI (HOP-92 NSCLC) was over 100 µM. For the same compound, the TGI (KM12 colon) was over 100 µM, the TGI (A549 NSCLC) was over 100 µM and the TGI (A498 renal) was over 100 µM. For the same compound, the TGI (KM20L2 colon) was over 100 µM, the TGI (RPMI-8226 leukemia) was over 100 µM and the TGI (SK-OV-3 ovarian) was over 100 µM. The TGI (OVCAR-5 ovarian) was over 100 µM, the TGI (P388/ADR leukemia) was over 100 µM and the TGI (UACC-62 melanoma) was over 100 µM. It also gave a TGI (MALME-3M melanoma) of over 100 µM, a TGI (K-562 leukemia) of over 100 µM and a TGI (SK-MEL-2 melanoma) of over 100 µM. The TGI (MOLT-4 leukemia) was over 100 µM, the TGI (HCT-116 colon) was over 100 µM and the TGI (NCI-H460 lung) was over 100 µM. The TGI (HOP-62 NSCLC) was over 100 µM, the TGI (SF-539 CNS) was over 100 µM and the TGI (UACC-257 melanoma) was over 100 µM. The TGI (M19-MEL melanoma) was over 100 µM, the TGI (OVCAR-4 ovarian) was over 100 µM and the TGI (OVCAR-3 ovarian) was over 100 µM. The TGI (UO-31 renal) was over 100 µM, the TGI (HL-60(TB) leukemia) was over 100 µM and the TGI (MCF7 breast) was over 100 µM. For the same compound, the TGI (HCT-15 colon) was over 100 µM, the TGI (SNB-19 CNS) was over 100 µM and the TGI (HOP-18 NSCLC) was over 100 µM. The TGI (HT29 colon) was over 100 µM, the TGI (SN12C renal) was over 100 µM and the TGI (P388 leukemia) was over 100 µM. It also gave a TGI (OVCAR-8 ovarian) of over 100 µM, a TGI (NCI/ADR-RES ovarian) of over 100 µM and a TGI (SF-295 CNS) of over 100 µM. For the same compound, the TGI (DLD-1 colon) was over 100 µM, the TGI (HCC-2998 colon) was over 100 µM and the TGI (SK-MEL-28 melanoma) was over 100 µM. For the same compound, the TGI (NCI-H522 lung) was over 100 µM, the TGI (EKVX NSCLC) was over 100 µM and the TGI (SW-620 colon) was over 100 µM. The TGI (NCI-H226 lung) was over 100 µM.
Work on `BrC/C=C/C[P+](c1ccccc1)(c1ccccc1)c1ccccc1` yielded a TGI (LOX IMVI melanoma) of 33.5 µM, a TGI (SNB-75 CNS) of 78.3 µM and a TGI (COLO 205 colon) of 16.1 µM. For the same compound, the TGI (CCRF-CEM leukemia) was over 100 µM, the TGI (XF 498 CNS) was 43.6 µM and the TGI (DMS 114 small cell lung) was 84 µM. For the same compound, the TGI (DMS 273 small cell lung) was 14.2 µM, the TGI (IGROV1 ovarian) was over 100 µM and the TGI (SF-268 CNS) was over 100 µM. For the same compound, the TGI (U251 CNS) was 87 µM, the TGI (SK-MEL-5 melanoma) was 39.8 µM and the TGI (SNB-78 CNS) was over 100 µM. The TGI (RXF-631 renal) was over 100 µM, the TGI (NCI-H23 lung) was over 100 µM and the TGI (HOP-92 NSCLC) was 36.1 µM. The TGI (KM12 colon) was 14.7 µM, the TGI (A549 NSCLC) was over 100 µM and the TGI (TK-10 renal) was 42 µM. For the same compound, the TGI (KM20L2 colon) was over 100 µM, the TGI (RPMI-8226 leukemia) was over 100 µM and the TGI (SK-OV-3 ovarian) was over 100 µM. It also gave a TGI (OVCAR-5 ovarian) of over 100 µM, a TGI (UACC-62 melanoma) of 52.3 µM and a TGI (ACHN renal) of over 100 µM. The TGI (MALME-3M melanoma) was over 100 µM, the TGI (K-562 leukemia) was over 100 µM and the TGI (SK-MEL-2 melanoma) was 25.7 µM. The TGI (MOLT-4 leukemia) was over 100 µM, the TGI (HCT-116 colon) was over 100 µM and the TGI (NCI-H460 lung) was over 100 µM. The TGI (HOP-62 NSCLC) was 58.2 µM, the TGI (LXFL 529 NSCLC) was 45.1 µM and the TGI (SF-539 CNS) was 22.4 µM. It also gave a TGI (UACC-257 melanoma) of over 100 µM, a TGI (M19-MEL melanoma) of 33.2 µM and a TGI (OVCAR-4 ovarian) of over 100 µM. It also gave a TGI (OVCAR-3 ovarian) of 58.7 µM, a TGI (UO-31 renal) of over 100 µM and a TGI (HL-60(TB) leukemia) of 39.2 µM. For the same compound, the TGI (SNB-19 CNS) was over 100 µM, the TGI (HOP-18 NSCLC) was over 100 µM and the TGI (SN12C renal) was over 100 µM. It also gave a TGI (OVCAR-8 ovarian) of over 100 µM, a TGI (SF-295 CNS) of 60.6 µM and a TGI (HCC-2998 colon) of over 100 µM. It also gave a TGI (SK-MEL-28 melanoma) of over 100 µM, a TGI (NCI-H522 lung) of 51.3 µM and a TGI (786-0 renal) of over 100 µM. For the same compound, the TGI (M14 melanoma) was 82.4 µM and the TGI (SW-620 colon) was over 100 µM.
